Molecular target: p97 (Homo sapiens, UniProt P55072)
Assay: P97 ATPase biochemical assay (ADP Glo)
Conditions: 20 nM p97, 20 μM ATP, 37° C. 15 minutes
Protocol: The ATPase assay is performed according the following protocol: Purified enzyme (20 nM p97), substrate (20 μM ATP) and a dose titration of compounds are mixed in buffer (50 mM TRIS pH 7.5, 20 mM MgCl2, 0.02% TX-100, 1 mM DTT, 0.2% (v/v) glycerol) and incubated at 37° C. for 15 minutes. The reaction is terminated and the level of product generated is measured using the ADP Glo Assay Kit (Promega, Madison Wis.). Plotting product generated versus compound concentration and using a four-parameter fit model generates an IC50 value for each compounds.
The p97 assay is an initial screening assay used to determine inhibitory activity of the fused pyrimidine compounds of the invention against the p97 complex. As discussed above, inhibition of activity of the p97 proteosome complex can enable apoptosis and cause elimination of neoplastic cells (cancer cells). The method follows that of Christianson in Nat.
Assay Buffer is a mixture of 50 mM TRIS pH 7.5, 20 mM MgCl2, 0.02% TX-100, 1 mM DTT and 0.2% (v/v) Glycerol. […] The identification kit is an ADP glo kit (Promega): stop buffer, detection reagent.
0.5 μL compound serial diluted in DMSO (Final Conc. 10%)
2 μL ATP (Final Conc.=20 uM, diluted in assay buffer)
2.5 μL p97 (Final Conc.=20 nM, diluted in assay buffer)
Incubate at 37 degC for 15 min.
Add 5 μL of stop buffer, incubate at RT for 40 min.
Add 10 μL of detection reagent, incubate at RT for 30 min.
Read luminescence on Envision plate reader.
Plot normalized luminescence data against log-transformed concentration values and fit to a sigmoidal curve to determine IC50 values (done in Collaborative Drug Discovery software).

Chain of p97 (P55072 whole entry): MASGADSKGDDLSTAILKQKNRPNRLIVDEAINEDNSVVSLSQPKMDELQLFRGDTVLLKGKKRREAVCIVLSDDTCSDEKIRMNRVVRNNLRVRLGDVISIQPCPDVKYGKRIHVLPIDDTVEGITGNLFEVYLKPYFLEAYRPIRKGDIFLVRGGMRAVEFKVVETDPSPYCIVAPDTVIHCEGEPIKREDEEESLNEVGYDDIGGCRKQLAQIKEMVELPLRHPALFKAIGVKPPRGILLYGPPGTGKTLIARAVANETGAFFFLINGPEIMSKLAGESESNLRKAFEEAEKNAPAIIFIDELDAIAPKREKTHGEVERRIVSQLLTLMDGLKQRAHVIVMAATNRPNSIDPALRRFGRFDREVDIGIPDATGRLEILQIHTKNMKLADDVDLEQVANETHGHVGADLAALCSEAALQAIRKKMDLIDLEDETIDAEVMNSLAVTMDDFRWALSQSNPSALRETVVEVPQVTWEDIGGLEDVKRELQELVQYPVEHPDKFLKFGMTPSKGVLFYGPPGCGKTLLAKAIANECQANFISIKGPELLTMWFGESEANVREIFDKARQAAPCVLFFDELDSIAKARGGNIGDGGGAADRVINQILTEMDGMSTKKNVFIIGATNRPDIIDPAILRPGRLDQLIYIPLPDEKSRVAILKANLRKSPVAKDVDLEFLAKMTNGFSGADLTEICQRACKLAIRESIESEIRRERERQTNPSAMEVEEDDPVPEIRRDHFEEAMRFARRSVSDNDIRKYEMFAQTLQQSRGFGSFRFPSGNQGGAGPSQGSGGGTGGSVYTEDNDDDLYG

Compound | IC50 [nM]
Cc1cc2ccccc2n1-c1nc(NCc2ccccc2)c2cccc(CN)c2n1 [compound 2, 8-(aminomethyl)-N-benzyl-2-(2-methyl-1H-indol-1-yl)quinazolin-4-amine] | < 1000
COc1cccc2c(NCc3ccccc3)nc(-c3c(C)oc4ccccc34)nc12 [compound 16, N-benzyl-8-methoxy-2-(2-methyl-1-benzofuran-3-yl)quinazolin-4-amine] | < 1000
Cc1cc2ccccc2n1-c1nc(NCc2ccccc2)c2cccc(C#N)c2n1 [compound 19, 4-(benzylamino)-2-(2-methyl-1H-indol-1-yl)quinazoline-8-carbonitrile] | < 1000
CC(N)c1cc2ccccc2n1-c1nc2c(c(NCc3ccccc3)n1)CCCC2 (stereo not drawn) [compound 22, 2-[2-(1-aminoethyl)-1H-indol-1-yl]-N-benzyl-5,6,7,8-tetrahydroquinazolin-4-amine] | < 1000
COCCOc1cccc2c(NCc3ccccc3)nc(-n3c(CN)cc4ccccc43)nc12 [compound 23] | < 300
Cc1cc2c(F)cccc2n1-c1nc2c(c(NCc3ccccc3)n1)CNCC2 [compound 41, N-benzyl-2-(4-fluoro-2-methyl-1H-indol-1-yl)-5H,6H,7H,8H-pyrido[4,3-d]pyrimidin-4-amine] | < 300
COc1cccc2c1cc(C)n2-c1nc2c(c(NCc3ccccc3)n1)CNCC2 [compound 43] | < 1000
CCN1CCc2nc(-n3c(C)cc4ccccc43)nc(NCc3ccccc3)c2C1 [compound 63, N-benzyl-6-ethyl-2-(2-methyl-1H-indol-1-yl)-5H,6H,7H,8H-pyrido[4,3-d]pyrimidin-4-amine] | < 1000
CCCN1CCc2nc(-n3c(C)cc4ccccc43)nc(NCc3ccccc3)c2C1 [compound 65, N-benzyl-2-(2-methyl-1H-indol-1-yl)-6-propyl-5H,6H,7H,8H-pyrido[4,3-d]pyrimidin-4-amine] | < 1000

Further lines, results first:

IC50 [nM] | Compound
< 100 | COc1cccc2c(NCc3ccccc3)nc(-n3c(OC)nc4ccccc43)nc12 [compound 1, N-benzyl-8-methoxy-2-(2-methoxy-1H-1,3-benzodiazol-1-yl)quinazolin-4-amine]
< 100 | COc1nc2ccccc2n1-c1nc(NCc2ccccc2)c2ncsc2n1 [compound 4, N-benzyl-5-(2-methoxy-1H-1,3-benzodiazol-1-yl)-[1,3]thiazolo[5,4-d]pyrimidin-7-amine]
< 100 | COc1cccc2c(NCc3ccccc3)nc(-n3c(C)cc4ccccc43)nc12 [compound 8, N-benzyl-8-methoxy-2-(2-methyl-1H-indol-1-yl)quinazolin-4-amine]
< 300 | Cc1cc2ccccc2n1-c1nc2c(c(NCc3ccccc3)n1)CNCC2 [compound 10, N-benzyl-2-(2-methyl-1H-indol-1-yl)-5H,6H,7H,8H-pyrido[4,3-d]pyrimidin-4-amine]
< 300 | Cc1cc2ccccc2n1-c1nc2c(c(NCc3ccccc3)n1)CCNC2 [compound 11, N-benzyl-2-(2-methyl-1H-indol-1-yl)-5H,6H,7H,8H-pyrido[3,4-d]pyrimidin-4-amine]
< 100 | COc1cccc2c(NCc3ccccc3)nc(-n3c(CN)cc4ccccc43)nc12 [compound 15, 2-[2-(aminomethyl)-1H-indol-1-yl]-N-benzyl-8-methoxyquinazolin-4-amine]
< 300 | Cc1cc2ccccc2n1-c1nc(NCc2ccccc2)c2cccc(C(N)=O)c2n1 [compound 17, 4-(benzylamino)-2-(2-methyl-1H-indol-1-yl)quinazoline-8-carboxamide]
< 300 | Cc1cc2ccccc2n1-c1nc2c(c(NCc3ccccc3)n1)COC2 [compound 18, N-benzyl-2-(2-methyl-1H-indol-1-yl)-5H,7H-furo[3,4-d]pyrimidin-4-amine]
< 100 | CC(=O)N1CCc2c(nc(-n3c(C)cc4ccccc43)nc2NCc2ccccc2)C1 [compound 20, 1-[4-(benzylamino)-2-(2-methyl-1H-indol-1-yl)-5H,6H,7H,8H-pyrido[3,4-d]pyrimidin-7-yl]ethan-1-one]

From patent US9475824B2, “Fused pyrimidines as inhibitors of p97 complex” (Cleave Biosciences, Inc., priority 2012, dated 2016)
